Values of other authors, collected in patent publication US8475827B2, “Tissue implants for implantation and methods for preparing the same” (CryoLife, Inc., priority 2010, dated 2013).

System: sensitive bacteria
Settings: literature review

## NCC[C@H](O)C(=O)N[C@@H]1C[C@H](N)[C@@H](O[C@H]2O[C@H](CN)[C@@H](O)[C@H](O)[C@H]2O)[C@H](O)[C@H]1O[C@H]1O[C@H](CO)[C@@H](O)[C@H](N)[C@H]1O [amikacin]
  minimum inhibitory concentration against sensitive bacteria (MIC) range: 0.125 to 32 µg/mL
